Laboratory results taken from patent US20040176349A1, “Antibacterial composition” (priority 2001, published 2004).

Legend:
E. faecalis ATCC 29212 = test: Checkerboard microdilution MIC with PFOB, Table 2; format: cell-based
Excerpt: (§1) The aim of the study was to detect any synergy between PFOB and the other antibiotics. For the purposes of the study, synergy was defined in accordance with the FIC (fractional inhibitory concentration) index, as disclosed by Lorian (1991, In “Antibiotics in Laboratory Medicine” 3rd edition, Eds. Williams & Wilkins; esp. p 434-443). In essence, if the combination of test compounds gives at least a 4-fold reduction in the FIC value for each compound, then a synergy may be considered to exist (i.e. FIC of the combination <0.5=synergy; FIC 0.5-2.0=“indifference”; and FIC >2=antagonism).
(§2) In Table 2, results in the checkerboard indicating synergy are hatched, and specific optimum synergistic combinations are boxed.

E.faecalis 78097 (van B) = test: Checkerboard microdilution MIC with PFOB, Table 2; format: cell-based
Excerpt: as §1, §2

E. faecalis 5659 (vanA) = test: Checkerboard microdilution MIC with PFOB, Table 2; format: cell-based
Excerpt: as §1, §2

E. faecalis ATCC 10541 = test: Checkerboard microdilution MIC with PFOB, Table 2; format: cell-based
Excerpt: The aim of the study was to detect any synergy between PFOB and the other antibiotics. For the purposes of the study, synergy was defined in accordance with the FIC (fractional inhibitory concentration) index, as disclosed by Lorian (1991, In “Antibiotics in Laboratory Medicine” 3rd edition, Eds. Williams & Wilkins; esp. p 434-443).

enterococci = test: Checkerboard study, synergy summary of Example 2; format: cell-based, Enterococcus; conditions: in words
Excerpt: as §1

[1] = Enterococcus faecalis, read-out: MIC (alone) of Partner

CN[C@H](CC(C)C)C(=O)N[C@H]1C(=O)N[C@@H](CC(N)=O)C(=O)N[C@H]2C(=O)N[C@H]3C(=O)N[C@H](C(=O)N[C@H](C(=O)O)c4cc(O)cc(O)c4-c4cc3ccc4O)[C@H](O)c3ccc(c(Cl)c3)Oc3cc2cc(c3O[C@@H]2O[C@H](CO)[C@@H](O)[C@H](O)[C@H]2O[C@H]2C[C@](C)(N)[C@H](O)[C@H](C)O2)Oc2ccc(cc2Cl)[C@H]1O [Vancomycin, vancomycin]
Synergy FIC (E. faecalis ATCC 29212; E. faecalis ATCC 29212, FIC index of PFOB + labelled partner, <0.5 = synergy): 0.31 | MIC of partner antibiotic in the presence of PFOB at 0.5 mg/L (E. faecalis ATCC 29212; E. faecalis ATCC 29212, PFOB 0.5 mg/L): 4 µg/mL | MIC of partner antibiotic in the presence of PFOB at 1 mg/L (E. faecalis ATCC 29212; E. faecalis ATCC 29212, PFOB 1 mg/L): 2 µg/mL | MIC of partner antibiotic in the presence of PFOB at 2 mg/L (E. faecalis ATCC 29212; E. faecalis ATCC 29212, PFOB 2 mg/L): 2 µg/mL | MIC of partner antibiotic in the presence of PFOB at 4 mg/L (E. faecalis ATCC 29212; E. faecalis ATCC 29212, PFOB 4 mg/L): 2 µg/mL | MIC of partner antibiotic in the presence of PFOB at 8 mg/L (E. faecalis ATCC 29212; E. faecalis ATCC 29212, PFOB 8 mg/L): 2 µg/mL | MIC of partner antibiotic in the presence of PFOB at 16 mg/L (E. faecalis ATCC 29212; E. faecalis ATCC 29212, PFOB 16 mg/L): 1 µg/mL | MIC of partner antibiotic in the presence of PFOB at 32 mg/L (E. faecalis ATCC 29212; E. faecalis ATCC 29212, PFOB 32 mg/L): 1 µg/mL | MIC of PFOB & Partner: Partner concentration (E. faecalis ATCC 29212; E. faecalis ATCC 29212, optimum synergistic combination with PFOB, second figure (partner)): 1 µg/mL | MIC (E. faecalis ATCC 29212; Enterococcus faecalis, ATCC29212, read-out: MIC (alone) of Partner): 4 µg/mL | Synergy FIC (E.faecalis 78097 (van B); E.faecalis 78097 (van B), FIC index of PFOB + labelled partner, <0.5 = synergy): 0.375 | MIC of partner antibiotic in the presence of PFOB at 0.5 mg/L (E.faecalis 78097 (van B); E.faecalis 78097 (van B), PFOB 0.5 mg/L): 64 µg/mL | MIC of partner antibiotic in the presence of PFOB at 1 mg/L (E.faecalis 78097 (van B); E.faecalis 78097 (van B), PFOB 1 mg/L): 64 µg/mL | MIC of partner antibiotic in the presence of PFOB at 2 mg/L (E.faecalis 78097 (van B); E.faecalis 78097 (van B), PFOB 2 mg/L): 64 µg/mL | MIC of partner antibiotic in the presence of PFOB at 4 mg/L (E.faecalis 78097 (van B); E.faecalis 78097 (van B), PFOB 4 mg/L): 64 µg/mL | MIC of partner antibiotic in the presence of PFOB at 8 mg/L (E.faecalis 78097 (van B); E.faecalis 78097 (van B), PFOB 8 mg/L): 64 µg/mL | MIC of partner antibiotic in the presence of PFOB at 16 mg/L (E.faecalis 78097 (van B); E.faecalis 78097 (van B), PFOB 16 mg/L): 32 µg/mL | MIC of partner antibiotic in the presence of PFOB at 32 mg/L (E.faecalis 78097 (van B); E.faecalis 78097 (van B), PFOB 32 mg/L): 16 µg/mL | MIC of PFOB & Partner: Partner concentration (E.faecalis 78097 (van B); E.faecalis 78097 (van B), optimum synergistic combination with PFOB, second figure (partner)): 32 µg/mL | MIC (E.faecalis 78097 (van B); [1]): > 64 µg/mL | MIC of partner antibiotic in the presence of PFOB at 0.5 mg/L (E. faecalis 5659 (vanA); E. faecalis 5659 (vanA), PFOB 0.5 mg/L): >64 µg/mL | MIC of partner antibiotic in the presence of PFOB at 1 mg/L (E. faecalis 5659 (vanA); E. faecalis 5659 (vanA), PFOB 1 mg/L): >64 µg/mL | MIC of partner antibiotic in the presence of PFOB at 2 mg/L (E. faecalis 5659 (vanA); E. faecalis 5659 (vanA), PFOB 2 mg/L): >64 µg/mL | MIC of partner antibiotic in the presence of PFOB at 4 mg/L (E. faecalis 5659 (vanA); E. faecalis 5659 (vanA), PFOB 4 mg/L): >64 µg/mL | MIC of partner antibiotic in the presence of PFOB at 8 mg/L (E. faecalis 5659 (vanA); E. faecalis 5659 (vanA), PFOB 8 mg/L): >64 µg/mL | MIC of partner antibiotic in the presence of PFOB at 16 mg/L (E. faecalis 5659 (vanA); E. faecalis 5659 (vanA), PFOB 16 mg/L): >64 µg/mL | MIC of partner antibiotic in the presence of PFOB at 32 mg/L (E. faecalis 5659 (vanA); E. faecalis 5659 (vanA), PFOB 32 mg/L): >64 µg/mL | MIC (E. faecalis 5659 (vanA); [1]): > 64 µg/mL | MIC of partner antibiotic in the presence of PFOB at 0.5 mg/L (E. faecalis ATCC 10541; E. faecalis ATCC 10541, PFOB 0.5 mg/L): 2 µg/mL | MIC of partner antibiotic in the presence of PFOB at 1 mg/L (E. faecalis ATCC 10541; E. faecalis ATCC 10541, PFOB 1 mg/L): 2 µg/mL | MIC of partner antibiotic in the presence of PFOB at 2 mg/L (E. faecalis ATCC 10541; E. faecalis ATCC 10541, PFOB 2 mg/L): 2 µg/mL | MIC of partner antibiotic in the presence of PFOB at 4 mg/L (E. faecalis ATCC 10541; E. faecalis ATCC 10541, PFOB 4 mg/L): 2 µg/mL | MIC of partner antibiotic in the presence of PFOB at 8 mg/L (E. faecalis ATCC 10541; E. faecalis ATCC 10541, PFOB 8 mg/L): 2 µg/mL | MIC of partner antibiotic in the presence of PFOB at 16 mg/L (E. faecalis ATCC 10541; E. faecalis ATCC 10541, PFOB 16 mg/L): 1 µg/mL | MIC of partner antibiotic in the presence of PFOB at 32 mg/L (E. faecalis ATCC 10541; E. faecalis ATCC 10541, PFOB 32 mg/L): 1 µg/mL | MIC (E. faecalis ATCC 10541; Enterococcus faecalis, ATCC10541, read-out: MIC (alone) of Partner): 4 µg/mL | synergy with PFOB (enterococci): less marked, but still significant, synergy
